The source of these data is ChEMBL document CHEMBL4414648, “Novel Benzohydroxamate-Based Potent and Selective Histone Deacetylase 6 (HDAC6) Inhibitors Bearing a Pentaheterocyclic Scaffold: Design, Synthesis, and Biological Evaluation” (J Med Chem, 2019).

A short description of data set [1]: Selectivity ratio of IC50 for C-terminal His-tagged human HDAC8 expressed in baculovirus infected sf9 insect cells to IC50 for human N-terminal GST-tagged HDAC6 expressed in baculovirus infected sf9 insect cells.
Data set [2] in a line: Selectivity ratio of IC50 for human HDAC4 expressed in baculovirus infected sf9 insect cells to IC50 for human N-terminal GST-tagged HDAC6 expressed in baculovirus infected sf9 insect cells.
Data set [3] can be described thus: Selectivity ratio of IC50 for C-terminal His-tagged human HDAC9 (604 to 1066 residues) expressed in baculovirus infected sf9 insect cells to IC50 for human N-terminal GST-tagged HDAC6 expressed in baculovirus infected sf9 insect cells.
A short description of data set [4]: Selectivity ratio of IC50 for N-terminal His-tagged human HDAC11 expressed in baculovirus expression system to IC50 for human N-terminal GST-tagged HDAC6 expressed in baculovirus infected sf9 insect cells.
For another data set, the system named is Mus musculus. Nature of the data set: Ratio of in vivo inhibition of HDAC6 in C57BL/6 mouse assessed as fold increase in acetylated tubulin level in spleen cytosolic protein extract to in vivo inhibition of HDAC in C57BL/6 mouse assessed as fold increase in acetylated-histone H3 level in spleen nuclear protein extracts.
For another data set, the system named is PBMC. The data set can be described thus: Cytotoxicity against human PBMC cells after 72 hrs by CellTiter 96 aqueous one solution assay. The format is cell-based.
Data set [5] in a line: Toxicity in C57BL/6 mouse assessed as effect on body weight at 50 mg/kg, ip administered for 5 days/week for two cycles and measured every other day relative to control. The format is organism-based. The following applies: in vivo, 120 h.
The nature of data set [6]: Toxicity in C57BL/6 mouse assessed as effect on platelet level at 50 mg/kg, ip administered for 5 days/week for two cycles and measured 60 mins post last dose by cell counter method relative to control. The format is organism-based. The settings on record: in vivo, 1 h.
Data set [7] can be described thus: Toxicity in C57BL/6 mouse assessed as effect on WBC level at 30 mg/kg, ip administered for 5 days/week for two cycles and measured 60 mins post last dose by beckman coulter counting method relative to control. Format: organism-based. The settings on record: in vivo, 1 h.
The nature of data set [8]: Toxicity in C57BL/6 mouse assessed as induction of piloerection up to 50 mg/kg, ip administered for 5 days/week for two cycles and measured daily starting from day 1. The settings on record: in vivo, 120 h. Format: organism-based.
Data set [9] in a line: Toxicity in C57BL/6 mouse assessed as effect on spasms up to 50 mg/kg, ip administered for 5 days/week for two cycles and measured daily starting from day 1. The following applies: in vivo, 120 h. Format: organism-based.
A short description of data set [10]: Toxicity in C57BL/6 mouse assessed as effect on social behavior up to 50 mg/kg, ip administered for 5 days/week for two cycles. Format: organism-based. The following applies: in vivo, 120 h.
Data set [11] in a line: Toxicity in C57BL/6 mouse assessed as induction of leukopenia up to 50 mg/kg, ip administered for 5 days/week for two cycles. Format: organism-based. The following applies: in vivo, 120 h.
Data set [12] can be described thus: Inhibition of C57BL/6 mouse effector T cells proliferation at 1 uM after 72 hrs in absence of regulatory T cells by CFSE dye based flow cytometric assay relative to control. A general note: A flow cytometer gives signals particle by particle.
The target in data set [13] is T1, Protein deacetylase HDAC6 (Mus musculus) (UniProt Q9Z2V5).
T1 sequence (whole entry): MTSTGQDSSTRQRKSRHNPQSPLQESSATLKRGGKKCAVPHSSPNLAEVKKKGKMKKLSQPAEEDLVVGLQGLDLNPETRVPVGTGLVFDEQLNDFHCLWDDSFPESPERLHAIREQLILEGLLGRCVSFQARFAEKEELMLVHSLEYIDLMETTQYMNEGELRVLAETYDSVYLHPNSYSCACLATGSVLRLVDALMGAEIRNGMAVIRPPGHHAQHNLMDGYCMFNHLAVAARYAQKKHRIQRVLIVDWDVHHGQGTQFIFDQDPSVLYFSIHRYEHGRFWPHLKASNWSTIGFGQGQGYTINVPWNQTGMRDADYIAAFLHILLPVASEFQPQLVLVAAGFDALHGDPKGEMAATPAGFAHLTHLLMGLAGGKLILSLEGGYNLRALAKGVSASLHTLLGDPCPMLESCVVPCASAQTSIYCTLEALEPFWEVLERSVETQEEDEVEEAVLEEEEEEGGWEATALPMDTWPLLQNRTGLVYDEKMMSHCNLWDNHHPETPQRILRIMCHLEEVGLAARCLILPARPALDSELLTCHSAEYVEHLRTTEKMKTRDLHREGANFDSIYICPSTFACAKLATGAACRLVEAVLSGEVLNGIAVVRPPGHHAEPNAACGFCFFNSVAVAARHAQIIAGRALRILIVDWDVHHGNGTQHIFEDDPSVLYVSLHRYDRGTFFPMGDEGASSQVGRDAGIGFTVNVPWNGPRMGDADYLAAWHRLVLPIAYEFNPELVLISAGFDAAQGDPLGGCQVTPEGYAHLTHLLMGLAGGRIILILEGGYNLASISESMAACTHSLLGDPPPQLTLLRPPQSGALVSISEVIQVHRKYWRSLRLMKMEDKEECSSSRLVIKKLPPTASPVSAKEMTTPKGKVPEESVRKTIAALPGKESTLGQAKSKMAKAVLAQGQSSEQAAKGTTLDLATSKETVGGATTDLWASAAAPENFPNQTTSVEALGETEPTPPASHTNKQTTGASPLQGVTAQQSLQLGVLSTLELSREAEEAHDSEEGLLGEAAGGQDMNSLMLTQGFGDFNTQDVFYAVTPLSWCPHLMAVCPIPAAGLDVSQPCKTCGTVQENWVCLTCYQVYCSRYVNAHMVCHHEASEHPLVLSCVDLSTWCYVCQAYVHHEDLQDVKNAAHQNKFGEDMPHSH
Nature of the data set: Inhibition of HDAC6 in C57BL/6 mouse regulatory T cells assessed as increase in Treg-mediated suppression of anti-CD3 induced CD4+ cell division at 500 nM after 72 hrs in presence mitomycin-treated APC by CFSE dye based flow cytometric assay relative to control.

The target of another data set is Cytochrome P450 3A4 (Homo sapiens, UniProt P08684).
Cytochrome P450 3A4, sequence (P08684 whole entry): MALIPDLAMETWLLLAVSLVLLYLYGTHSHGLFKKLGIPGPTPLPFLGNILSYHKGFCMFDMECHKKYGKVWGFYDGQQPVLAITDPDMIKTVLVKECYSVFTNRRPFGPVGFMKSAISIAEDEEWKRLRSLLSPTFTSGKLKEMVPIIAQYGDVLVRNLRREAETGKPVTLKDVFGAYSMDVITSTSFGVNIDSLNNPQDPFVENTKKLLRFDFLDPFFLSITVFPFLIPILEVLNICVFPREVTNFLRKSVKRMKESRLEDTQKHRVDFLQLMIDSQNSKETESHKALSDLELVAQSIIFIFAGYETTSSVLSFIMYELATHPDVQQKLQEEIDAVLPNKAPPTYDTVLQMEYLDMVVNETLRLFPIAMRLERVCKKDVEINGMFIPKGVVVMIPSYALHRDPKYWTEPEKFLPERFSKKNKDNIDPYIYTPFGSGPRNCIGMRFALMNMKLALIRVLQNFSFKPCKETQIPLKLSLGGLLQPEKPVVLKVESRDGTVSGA

Bounds are passed on as bounds.

Description for Cytochrome P450 3A4: Inhibition of CYP3A4 in human liver microsomes using testosterone as substrate

Take `Cn1c(Sc2ccc(C(=O)NO)cc2)nnc1-c1cccs1`: the “Ratio IC50” value in data set [1] is 62; in data set [2], 304; in [3] it was 132; in [4], 119. The Ratio in the data set on Mus musculus was 3.5. In addition, the IC50 was more than 1 µM in the data set with PBMC and 26.6 µM against Cytochrome P450 3A4. In addition, the Activity is 3.5% in data set [5]; -8% in data set [6]; -34% in data set [7]; “Non-Toxic” in data set [8]; “Non-Toxic” in [9]; “Non-Toxic” in data set [10]. Also, in data set [11], the Activity entry was “Toxic”. The compound also showed an inhibition at 72 h, 1 µM in data set [12] of less than 5%. Besides, the fold change (FC) in data set [13] was more than 1.5.

By IC50 is commonly meant the concentration needed to halve the response being measured. Usually inhibition stands for how much of the control response was suppressed. A lower inhibition goes with a weak effect.
